For assay [1], the target named is T1, SARS-CoV-2 nsp3-mac1 (Severe acute respiratory syndrome coronavirus 2, UniProt P0DTD1). The assay can be described thus: biochemical. The assay is classed as biochemical. The note with it: SARS-CoV-2 nsp3 macrodomain TR-FRET single point.
Assay [2] addresses T1, SARS-CoV-2 nsp3-mac1. The assay can be described thus: biochemical. Also noted: SARS-CoV-2 nsp3 macrodomain TR-FRET single point, per cent inhibition, n=2.
Setting [3] is: read-out: perc_inhibition_mean, batch_name=ASAP-0000482-001.
[4] abbreviates: read-out: perc_inhibition_mean, batch_name=ASAP-0000424-001.
[5] abbreviates: read-out: perc_inhibition_mean, batch_name=ASAP-0000366-001.
The mark [6] stands for this setting: read-out: perc_inhibition_mean, batch_name=ASAP-0000477-001.
The mark [7] stands for this setting: read-out: perc_inhibition_mean, batch_name=ASAP-0000323-001.
Where [8] appears, read: read-out: perc_inhibition_mean, batch_name=ASAP-0000267-001.
The mark [9] stands for this setting: read-out: perc_inhibition_mean, batch_name=ASAP-0000392-001.
The mark [10] stands for this setting: read-out: perc_inhibition_mean, batch_name=ASAP-0000287-001.
Where [11] appears, read: read-out: perc_inhibition_mean, batch_name=ASAP-0000409-001.
Setting [12] is: read-out: perc_inhibition_mean, batch_name=ASAP-0000460-001.
[13] abbreviates: read-out: perc_inhibition_mean, batch_name=ASAP-0000328-001.

Like-named read-outs stand apart in the source and are kept apart here.

`O=C(Cc1ccon1)Nc1ncnc2[nH]cnc12` [ASAP-0000102]: the perc_inhibition_mean on SARS-CoV-2 nsp3-mac1 [1] (concentration 50.0 uM) is given as -1.615%. For the same compound, the inhibition at 50 µM on SARS-CoV-2 nsp3-mac1 [2] (read-out: perc_inhibition_mean, batch_name=ASAP-0000102-001) was -1.61%.

Turning to `CC(C)[C@@H](Nc1ncnc2[nH]ccc12)C(=O)N(C)Cc1nnc2n1CCC2` [ASAP-0000482], on SARS-CoV-2 nsp3-mac1 [1] (concentration 49.75 uM), the perc_inhibition_mean is given as -8.89%. Moreover, the perc_inhibition_mean at SARS-CoV-2 nsp3-mac1 [1] (concentration 99.5 uM) is recorded as -6.138%. For the same compound, at SARS-CoV-2 nsp3-mac1 [2] (setting [3]), the inhibition at 49.75 µM is -8.89% and the inhibition at 99.5 µM is -6.14%.

As for `CN(C(=O)c1cnn2ccc(C3CCN(C(=O)c4ccccc4)CC3)cc12)c1ccccc1O` [ASAP-0000424], on SARS-CoV-2 nsp3-mac1 [1] (concentration 49.75 uM), the perc_inhibition_mean amounted to 10.02%. For the same compound, the perc_inhibition_mean on SARS-CoV-2 nsp3-mac1 [1] (concentration 99.5 uM) is reported as 15.878%. On SARS-CoV-2 nsp3-mac1 [2] (setting [4]), the inhibition at 49.75 µM stood at 10% and the inhibition at 99.5 µM is 15.9%.

As to `COc1cc(CC(=O)Nc2cc3c(=O)nc[nH]c3cn2)on1` [ASAP-0000366], the perc_inhibition_mean at SARS-CoV-2 nsp3-mac1 [1] (concentration 49.75 uM) is on record as -4.691%. Further, the perc_inhibition_mean on SARS-CoV-2 nsp3-mac1 [1] (concentration 99.5 uM) is reported as -3.481%. Besides, at SARS-CoV-2 nsp3-mac1 [2] (setting [5]), the inhibition at 49.75 µM is -4.69% and the inhibition at 99.5 µM was -3.48%.

For the compound `CC(C)[C@H]1N(c2ncnc3[nH]ccc23)CC12CCOCC2` [ASAP-0000477], the perc_inhibition_mean came to 27.65% on SARS-CoV-2 nsp3-mac1 [1] (concentration 49.75 uM) and 47.993% at SARS-CoV-2 nsp3-mac1 [1] (concentration 99.5 uM). For the same compound, the inhibition at 49.75 µM on SARS-CoV-2 nsp3-mac1 [2] (setting [6]) was determined as 27.6%. On SARS-CoV-2 nsp3-mac1 [2] (setting [6]), the inhibition at 99.5 µM came out at 48%.

Take `O=C(CCN(Cc1cccc(Cl)c1)C(=O)[C@@H]1CNCC12CC2)N1CCNCC1` [ASAP-0000323]: on SARS-CoV-2 nsp3-mac1 [1] (concentration 49.75 uM, n=2), the perc_inhibition_mean came out at 4.205%. Besides, the perc_inhibition_mean on SARS-CoV-2 nsp3-mac1 [1] (concentration 99.5 uM, n=2) turned out to be 2.382%. Further, at SARS-CoV-2 nsp3-mac1 [2] (setting [7]), the inhibition at 49.75 µM was determined as 4.21% and the inhibition at 99.5 µM amounted to 2.38%.

For `O=C(Nc1cnc2[nH]ncc2c1)c1cccc(-c2noc(C(F)(F)F)n2)c1` [ASAP-0000267], the perc_inhibition_mean at SARS-CoV-2 nsp3-mac1 [1] (concentration 50.0 uM, n=2) was -0.675%. For the same compound, the perc_inhibition_mean on SARS-CoV-2 nsp3-mac1 [1] (concentration 100.0 uM, n=2) was -1.621%. Besides, on SARS-CoV-2 nsp3-mac1 [2] (setting [8]), the inhibition at 50 µM was -0.675% and the inhibition at 100 µM was -1.62%.

As to `FC(F)(F)CO[C@@H]1CCCN(c2ncnc3[nH]ccc23)C1` [ASAP-0000075], on SARS-CoV-2 nsp3-mac1 [1] (concentration 50.0 uM), the perc_inhibition_mean is on record as 22.218%. In addition, at SARS-CoV-2 nsp3-mac1 [2] (read-out: perc_inhibition_mean, batch_name=ASAP-0000075-001), the inhibition at 50 µM stood at 22.2%.

With `O=C(Nc1cnc2[nH]ncc2c1)c1cc(C2CC2)[nH]c1C1CC1` [ASAP-0000079], the perc_inhibition_mean at SARS-CoV-2 nsp3-mac1 [1] (concentration 50.0 uM) is on record as -23.613%. At SARS-CoV-2 nsp3-mac1 [2] (read-out: perc_inhibition_mean, batch_name=ASAP-0000079-001), the inhibition at 50 µM was -23.6%.

With `CN1CCC[C@H](NC(=O)c2cnn3ccc(C4CCN(C(=O)c5ccccc5)CC4)cc23)C1` [ASAP-0000392], the perc_inhibition_mean on SARS-CoV-2 nsp3-mac1 [1] (concentration 49.75 uM) is recorded as -6.989%; at SARS-CoV-2 nsp3-mac1 [1] (concentration 99.5 uM), -5.439%. Moreover, the inhibition at 49.75 µM at SARS-CoV-2 nsp3-mac1 [2] (setting [9]) is -6.99%. Further, the inhibition at 99.5 µM at SARS-CoV-2 nsp3-mac1 [2] (setting [9]) was -5.44%.

For the compound `COCc1cc(CNc2nc3[nH]cnc3c(=O)[nH]2)on1` [ASAP-0000117], the perc_inhibition_mean on SARS-CoV-2 nsp3-mac1 [1] (concentration 50.0 uM) is 2.984%. Moreover, the inhibition at 50 µM at SARS-CoV-2 nsp3-mac1 [2] (read-out: perc_inhibition_mean, batch_name=ASAP-0000117-001) is 2.98%.

Regarding `O=C(Nc1ccccc1)Nc1ccc(C(=O)N2CCc3ccncc32)cc1` [ASAP-0000287], on SARS-CoV-2 nsp3-mac1 [1] (concentration 49.75 uM, n=2), the perc_inhibition_mean is -4.305%. The perc_inhibition_mean on SARS-CoV-2 nsp3-mac1 [1] (concentration 99.5 uM, n=2) is 0.234%. Also, on SARS-CoV-2 nsp3-mac1 [2] (setting [10]), the inhibition at 49.75 µM was -4.3% and the inhibition at 99.5 µM was found to be 0.234%.

`O=C(CCN(Cc1cccc(Cl)c1)C(=O)c1ccc(O)cc1)N1CCNCC1` [ASAP-0000409]: the perc_inhibition_mean is -0.343% on SARS-CoV-2 nsp3-mac1 [1] (concentration 49.75 uM) and -1.632% at SARS-CoV-2 nsp3-mac1 [1] (concentration 99.5 uM). Further, on SARS-CoV-2 nsp3-mac1 [2] (setting [11]), the inhibition at 49.75 µM was -0.343%. The inhibition at 99.5 µM at SARS-CoV-2 nsp3-mac1 [2] (setting [11]) is -1.63%.

`C[C@@H](NC(=O)c1ncnc2[nH]ccc12)c1ncc(C(=O)O)c(=O)[nH]1` [ASAP-0000460]: the perc_inhibition_mean on SARS-CoV-2 nsp3-mac1 [1] (concentration 49.75 uM) was determined as 4.872%. Besides, the perc_inhibition_mean on SARS-CoV-2 nsp3-mac1 [1] (concentration 99.5 uM) was determined as 10.734%. Further, at SARS-CoV-2 nsp3-mac1 [2] (setting [12]), the inhibition at 49.75 µM was found to be 4.87% and the inhibition at 99.5 µM is 10.7%.

Regarding `O=C(c1cn2ncccc2n1)N1CCC(c2ccn3ncc(C(=O)N4CCCCC4)c3c2)CC1` [ASAP-0000328], the perc_inhibition_mean at SARS-CoV-2 nsp3-mac1 [1] (concentration 49.75 uM, n=2) is reported as 30.741%. Moreover, the perc_inhibition_mean at SARS-CoV-2 nsp3-mac1 [1] (concentration 99.5 uM, n=2) is 53.75%. Besides, on SARS-CoV-2 nsp3-mac1 [2] (setting [13]), the inhibition at 49.75 µM was found to be 30.7% and the inhibition at 99.5 µM came out at 53.8%.
